Data from patent publication US10005782B2, “Substituted pyrazolo[1,5-a]pyrimidines as bruton's tyrosine kinase modulators” (BeiGene, Ltd., priority 2013, dated 2018).
Like-named read-outs stand apart in the source and are kept apart here.

Biological target: Recombinant Btk (Homo sapiens (Human), UniProt Q06187)
Experiment: Btk kinase assay (TR-FRET)
[1] = read-out: IC50 (nM) Btk, 1 hour pre-incubation, ATP at Km

Recombinant Btk, sequence (Q06187 whole entry): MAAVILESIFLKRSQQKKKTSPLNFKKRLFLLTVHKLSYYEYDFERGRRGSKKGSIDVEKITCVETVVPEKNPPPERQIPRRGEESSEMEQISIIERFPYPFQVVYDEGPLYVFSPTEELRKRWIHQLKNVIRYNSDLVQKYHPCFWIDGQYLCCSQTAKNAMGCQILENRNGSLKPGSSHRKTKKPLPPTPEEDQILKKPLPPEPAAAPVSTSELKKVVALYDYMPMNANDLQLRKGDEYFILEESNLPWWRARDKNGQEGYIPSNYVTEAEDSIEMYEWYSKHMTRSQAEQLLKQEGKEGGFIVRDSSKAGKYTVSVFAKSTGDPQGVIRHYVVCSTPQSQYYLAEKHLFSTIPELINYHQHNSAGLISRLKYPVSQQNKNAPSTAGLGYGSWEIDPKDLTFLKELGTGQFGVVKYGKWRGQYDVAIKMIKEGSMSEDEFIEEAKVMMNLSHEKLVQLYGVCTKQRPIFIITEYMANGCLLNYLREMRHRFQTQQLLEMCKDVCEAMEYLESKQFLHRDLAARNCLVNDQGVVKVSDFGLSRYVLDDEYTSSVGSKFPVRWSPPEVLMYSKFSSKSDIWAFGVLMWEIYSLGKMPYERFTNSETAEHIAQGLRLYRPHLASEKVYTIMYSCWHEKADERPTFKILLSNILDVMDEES

C=CC(=O)Nc1ccccc1C1CCNc2c(C(N)=O)c(-c3ccc(F)c(F)c3)nn21 (stereo not shown) [Compound 137, 7-(2-acrylamidophenyl)-2-(3,4-difluorophenyl)-4,5,6,7-tetrahydropyrazolo[1,5-a]pyrimidine-3-carboxamide]
IC50 [1]: 3.7 nM

NC(=O)c1c(-c2ccc(Oc3ccccc3)cc2)nn2c1NCCC2c1cccc(N)c1 (single isomer, unassigned) [Compound 2b, 7-(3-Aminophenyl)-2-(4-phenoxyphenyl)-4,5,6,7-tetrahydropyrazolo[1,5-a]pyrimidine-3-carboxamide]
IC50 (read-out: IC50 (nM) Btk, 1 hour pre-incubation, ATP at Km, listed as 2b (peak 2)): 210 nM

NC(=O)c1c(-c2ccc(Oc3ccccc3)cc2)nn2c1NCCC2c1cccc(N)c1 (single isomer, unassigned) [Compound 2a, 7-(3-Aminophenyl)-2-(4-phenoxyphenyl)-4,5,6,7-tetrahydropyrazolo[1,5-a]pyrimidine-3-carboxamide]
IC50 (read-out: IC50 (nM) Btk, 1 hour pre-incubation, ATP at Km, listed as 2a (peak 1)): 270 nM

C=CC(=O)Nc1ccccc1C1CCNc2c(C(N)=O)c(-c3ccc(OC)c(OC)c3)nn21 (stereo not shown) [Compound 168, 7-(2-Acrylamidophenyl)-2-(3,4-dimethoxyphenyl)-4,5,6,7-tetrahydropyrazolo[1,5-a]pyrimidine-3-carboxamide]
IC50 [1]: 3.7 nM
